What was measured:
rats [1] = experiment: bladder outlet obstruction-induced bladder dysfunction in rats, 1-week treatment; type: in vivo, rat; conditions: for effect on bladder hypertrophy secondary to outlet obstruction / effect on cystometric parameters: 1-week treatment; for effect on cystometric parameters: bladder outlet obstruction rats
Procedure: In another experiment, the effect of a 1-week treatment with 4-[3-[4-(6-fluoro-1,2,-benzisoxazol-3-yl)-1-piperidinyl]propoxy]-3-methoxy-benzoic acid, tamulosin, and a common vehicle on bladder outlet obstruction-induced bladder dysfunction in rats was evaluated. […] However, this latter effect was exclusively observed at the lowest dose tested (1 mg/kg/day).

[2] = system: human alpha1-adrenoceptors expressed in the prostatic adenoma; experiment: norepinephrine (NE)-induced contraction in prostatic adenoma from BPH patients (isolated strips, organ bath); conditions: for effect on pEC50 of the second CRC to NE: 60 min incubation
Procedure: Briefly, human prostatic adenoma was obtained from 6 patients (mean age 71±5 years) undergoing transvesical adenomectomy of the prostate because of BPH. Prostatic strips were mounted in glass organ baths containing a modified Krebs-Henseleit solution (NaCl 114 mM, KCl 4.7 mM, CaCl2 2.5 mM, KH2PO4 1.2 mM, NaHCO3 25 mM, glucose 11.7 mM, ascorbic acid 1.1 mM (pH 7.4, gassed with 95% O2 and 5% CO2 at 37° C.) under 1.5 g tension. […] Strips having a contractile response <0.3 g were discarded. After washout and 60 min of re-equilibration to re-establish baseline tension, a first cumulative concentration-response curve to NE (in the range 0.1 μM-1 mM) was constructed until a plateau of contraction was reached. […] Only one concentration of antagonist was tested in a single strip. […] The quantity of DMSO in the organ baths was equal to 0.1%.

alpha1-adrenoceptors [3] = system: T1, alpha1-adrenoceptors; conditions: rabbit isolated prostate; cited from earlier work
T1 construct: antagonist potency (pA2) estimated by the Schild plot; other: rabbit isolated prostate, vs PE, 0.1-3 uM, 60 min incubat; other: rabbit isolated prostate, vs PE, single concentration 0.01 μ; pKb; other: rabbit isolated prostate

anesthetized rats [4] = experiment: PE-induced increase in intraurethral pressure (UP) and arterial blood pressure (BP) in anesthetized rats, oral administration; type: in vivo, rat; conditions: for effect on basal BP levels / effect on basal UP: oral; for effect on basal BP levels: 25 and 45 minutes after administration; for effect on basal UP: measured 25 or 45 minutes later; for UP100% value (dose of PE increasing baseline UP by 100%), statistical significance / effect on BP, from BP10% to BP100%: 45 min
Procedure: An experiment was conducted to evaluate the antagonistic effect of 4-[3-[4-(6-fluoro-1,2,-benzisoxazol-3-yl)-1-piperidinyl]propoxy]-3-methoxy-benzoic acid on the PE-induced increase in intraurethral pressure (UP) and arterial blood pressure (BP) in anesthetized rats.

anesthetized rats [5] = experiment: PE-induced increase in intra-urethral pressure (UP) in anesthetized rats, intravenous administration; type: in vivo, rat; conditions: for effect on agonist (PE) effect on UP: PE dose range 10-300 ug/kg
Procedure: Briefly, catheters were inserted into the femoral vein of anesthetized male rats for drug administration and into the urethra through the bladder wall for measuring urethral pressure (UP). […] The different doses of PE (between 3 and 300 ug/kg in controls and up to 3000 ug/kg in treated animals) were administered intravenously under a volume of 1 mL/kg as a bolus with a 3 minute interval between each dose.

alpha1-adrenoceptors [6] = experiment: phenylephrine (PE)-induced contraction in the prostatic smooth muscle of male rabbits (isolated strips, organ bath); set-up: species or system rabbit
Procedure: (§1) It is well established in the literature that the rabbit is a good model for the pharmacology of the lower urinary tract. In particular, a correlation was found between affinities for cloned alpha1a-adrenoceptors and antagonist potency (pKb) values for several alpha1-adrenoceptors antagonists in the rabbit isolated prostate (Martin et al., J. Pharmacol. Expr. Ther. 282: 228-35, 1997). Briefly, following animal sacrifice, transverse preparations of the prostate were suspended vertically in 25 mL glass organ baths under a loading tension of 1 g and placed in an oxygenated, modified Krebs solution (NaCl 114 mM, KCl 4.7 mM, CaCl2 2.5 mM, KH2PO4 1.2 mM, NaHCO3 25 mM, glucose 11.7 mM (pH 7.4, gassed with 95% O2 and 5% CO2 at 37° C.). Propranolol (1 μM), desipramine (0.1 μM), deoxycorticosterone (3 μM) and normetanephrine (1 μM) were added to the Krebs-Henseleit solution in order to block beta-adrenoceptors, neuronal and extraneuronal uptake and catechol-O-methyl transferase, respectively. After 60 min of equilibration, smooth muscle strips were exposed to 30 μM PE to measure their viability. Strips having low contractile responses (<0.5 g) were discarded. Following a 30 min washout period, a first concentration-response curve (CRC) to PE (in the range 0.1 μM-1 mM) was obtained by cumulative additions as half-log unit concentrations increments. Then, tissues were washed for 60 min and incubated for 60 min with the test substance (at four different concentrations) before a second PE CRC was obtained (in the range 0.1 μM-10 mM). Only one concentration for the test substance was tested on each single smooth muscle strip.

alpha1-adrenoceptors [7] = system: T1, alpha1-adrenoceptors; experiment: as above; set-up: species or system rabbit; conditions: rabbit isolated prostate, vs PE
Procedure: as §1

rats [8] = conditions: administered intraduodenally; cited from earlier work
conscious rats = conditions: i.v.; cited from earlier work
[9] = system: human isolated prostatic adenoma; conditions: human isolated prostatic adenoma obtained from BPH patients; cited from earlier work
[10] = system: dopamine, histamine and serotonin receptors (other than 5HT2A); experiment: receptor affinity/potency profile, dopamine, histamine and serotonin receptors; type: binding
[11] = biological target: T2, cloned human alpha1 D-adrenoceptor (Homo sapiens, UniProt P25100); experiment: binding studies, cloned human alpha1D-adrenoceptor; conditions: data communicated by Dr. Baroldi, Vanda Pharmaceuticals
T2 construct: expressed in transfected cells
T2 sequence (P25100 1-572): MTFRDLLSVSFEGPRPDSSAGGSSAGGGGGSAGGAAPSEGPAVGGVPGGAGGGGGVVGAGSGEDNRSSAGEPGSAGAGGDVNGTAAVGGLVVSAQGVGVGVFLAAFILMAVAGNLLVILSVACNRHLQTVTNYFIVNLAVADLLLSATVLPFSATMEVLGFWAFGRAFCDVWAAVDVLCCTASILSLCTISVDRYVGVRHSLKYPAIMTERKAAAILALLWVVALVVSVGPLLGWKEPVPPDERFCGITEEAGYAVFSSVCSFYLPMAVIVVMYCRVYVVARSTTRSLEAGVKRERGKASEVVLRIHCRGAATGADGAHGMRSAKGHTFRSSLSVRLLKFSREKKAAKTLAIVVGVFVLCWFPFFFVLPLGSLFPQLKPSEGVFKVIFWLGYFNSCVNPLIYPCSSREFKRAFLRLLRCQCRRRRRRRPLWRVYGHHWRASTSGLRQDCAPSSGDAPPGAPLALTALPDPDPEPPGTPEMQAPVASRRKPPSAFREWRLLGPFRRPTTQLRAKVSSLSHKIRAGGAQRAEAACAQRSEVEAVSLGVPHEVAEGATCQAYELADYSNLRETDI
Description: (§2) The pA2 of 4-[3-[4-(6-fluoro-1,2,-benzisoxazol-3-yl)-1-piperidinyl]propoxy]-3-methoxy-benzoic acid (7.50) is in accordance with the value previously found on the rabbit isolated prostate. […] Importantly, it is recognized that blockade of both alpha1A-and alpha1D-adrenoceptors is necessary for optimal clinical effect on BPH patients (Andersson K E, World J. Urol. 19: 390-96, 2002).

[12] = DMPK studies in rats with [14C]-labelled compound, brain radioactivity; type: in vivo, rat; conditions: rats treated with [14C] compound
Description: 4-[3-[4-(6-fluoro-1,2,-benzisoxazol-3-yl)-1-piperidinyl]propoxy]-3-methoxy-benzoic acid appears not to cross the blood-brain barrier. Specifically, in DMPK studies using rats treated with [14C] […] Therefore, 4-[3-[4-(6-fluoro-1,2,-benzisoxazol-3-yl)-1-piperidinyl]propoxy]-3-methoxy-benzoic acid is particularly useful in conditions that are not mediated, to a substantial degree, by receptors in the brain.

rat alpha1A-adrenoceptor = biological target: T3, rat alpha1A-adrenoceptor (Rattus norvegicus, UniProt P43140); experiment: binding studies, rat alpha1A-adrenoceptor; conditions: data communicated by Dr. Baroldi, Vanda Pharmaceuticals
T3 sequence (P43140 1-466): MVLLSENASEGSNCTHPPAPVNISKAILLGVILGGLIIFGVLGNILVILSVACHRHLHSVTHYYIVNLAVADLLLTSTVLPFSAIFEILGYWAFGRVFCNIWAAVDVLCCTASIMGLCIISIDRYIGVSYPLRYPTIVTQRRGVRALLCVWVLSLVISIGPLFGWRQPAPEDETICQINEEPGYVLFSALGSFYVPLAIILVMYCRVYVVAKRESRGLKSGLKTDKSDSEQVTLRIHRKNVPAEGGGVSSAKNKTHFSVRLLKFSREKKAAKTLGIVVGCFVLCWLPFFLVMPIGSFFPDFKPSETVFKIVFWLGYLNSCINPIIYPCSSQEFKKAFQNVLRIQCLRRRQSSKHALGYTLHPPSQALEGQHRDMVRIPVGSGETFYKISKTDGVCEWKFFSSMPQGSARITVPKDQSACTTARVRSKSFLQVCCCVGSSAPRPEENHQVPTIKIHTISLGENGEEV
Description: as §2

alpha 1 adrenoceptors = experiment: receptor affinity/potency profile, alpha 1 adrenoceptors; type: binding
serotonin 5HT2A receptor = serotonin 5HT2A receptor (Homo sapiens, UniProt P28223); experiment: receptor affinity/potency profile, serotonin 5HT2A receptor; type: binding
serotonin 5HT2A receptor, sequence (P28223 whole entry): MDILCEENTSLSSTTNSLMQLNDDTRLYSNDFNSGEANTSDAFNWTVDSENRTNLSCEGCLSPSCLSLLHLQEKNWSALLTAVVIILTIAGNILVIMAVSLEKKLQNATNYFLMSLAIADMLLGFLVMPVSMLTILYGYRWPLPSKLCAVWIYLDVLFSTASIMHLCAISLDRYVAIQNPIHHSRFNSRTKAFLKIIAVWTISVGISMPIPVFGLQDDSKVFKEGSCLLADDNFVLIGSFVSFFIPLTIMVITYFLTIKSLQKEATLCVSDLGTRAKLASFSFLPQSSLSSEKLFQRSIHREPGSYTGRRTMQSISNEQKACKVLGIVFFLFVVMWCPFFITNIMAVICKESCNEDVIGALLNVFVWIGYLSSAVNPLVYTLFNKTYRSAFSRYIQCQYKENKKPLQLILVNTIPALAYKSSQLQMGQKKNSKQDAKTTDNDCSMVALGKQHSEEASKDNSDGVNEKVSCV

## CCOc1ccccc1OCCN[C@H](C)Cc1ccc(OC)c(S(N)(=O)=O)c1 [tamsulosin, reference compound]
Rats [1]
  effect on bladder hypertrophy secondary to outlet obstruction: devoid of effect
  effect on cystometric parameters: completely ineffective
[2]
  effect on Emax of NE concentration-response curve: no effect
  effect on pEC50 of the second CRC to NE: induced a shift
alpha1-adrenoceptors [3]
  pKb: 9.74
Anesthetized rats [4]
  effect on basal BP levels: significantly decreased
  effect on basal UP: no effect
Anesthetized rats [5]; tamsulosin 10 ug/kg
  effect on agonist (PE) effect on UP: statistically significant decrease
alpha1-adrenoceptors [6]
  effect on Emax of PE concentration-response curve: unaffected
alpha1-adrenoceptors [6]; rabbit preparation, based on similar PE pEC50 values
  potency of tamsulosin relative to the test substance (times more potent): 300 times
alpha1-adrenoceptors [7]; single concentration 0.01 μM
  pA2 calculated from the dose-ratio of pEC50 values: 10.21

## C[C@H](Cc1cc2c(c(C(N)=O)c1)N(CCCO)CC2)NCCOc1ccccc1OCC(F)(F)F [silodosin]
Rats [8]
  potency relative to tamsulosin (times less potent) on UP: 2.8 times

## COc1cc2nc(N(C)CCCNC(=O)C3CCCO3)nc(N)c2cc1OC (centres unmarked) [alfuzosin]
Conscious rats
  potency relative to tamsulosin (fold less potent) in decreasing basal urethral pressure: 10 fold
alpha1-adrenoceptors [3]
  pKb: 7.25
[9]
  pKb: 7.78

## COc1cc(C(=O)O)ccc1OCCCN1CCC(c2noc3cc(F)ccc23)CC1 [4-[3-[4-(6-fluoro-1,2,-benzisoxazol-3-yl)-1-piperidinyl]propoxy]-3-methoxy-benzoic acid]
[10]
  activity with respect to the dopamine, histamine and serotonin receptors (other than 5HT2A): very weak if any activity
[11]
  IC50: 17.8 nM
Rats [1]
  effect on bladder hypertrophy secondary to outlet obstruction: devoid of effect
  effect on cystometric parameters: devoid of significant effect
Rats [1]; exclusively at the lowest dose tested (1 mg/kg/day)
  effect on amplitude of unstable contractions: significantly decreased
[12]
  radioactivity concentrations in the brain (blood-brain barrier crossing): none of the animals had measurable radioactivity concentrations in the brain
Rat alpha1A-adrenoceptor
  IC50: 11.5 nM
[2]
  effect on Emax of NE concentration-response curve: no effect
  effect on pEC50 of the second CRC to NE: concentration-dependent shift
[2]; human alpha1-adrenoceptors in prostatic adenoma
  potency relative to tamsulosin (times less potent): approximately 100 times
[2]; human prostatic adenoma, vs NE, dose-ratios corrected by solvent group
  pA2 estimated by the Schild Plot: 7.50
Anesthetized rats [4]; 0.5 mg/kg p.o.
  effect on PE-induced increase of basal UP: ineffective
Anesthetized rats [4]; 1.5 mg/kg p.o.
  effect on PE-induced increase of basal UP: slight effect
  UP100% value (dose of PE increasing baseline UP by 100%), statistical significance: reached the level of statistical significance
  effect on BP, from BP10% to BP100%: significant
Anesthetized rats [4]; 4.5 mg/kg p.o.
  effect on PE-induced increase of basal UP: slight effect
  UP100% value (dose of PE increasing baseline UP by 100%), statistical significance: not
  effect on BP, from BP10% to BP100%: no effect
Anesthetized rats [4]; oral route, 1.5 mg/kg at 45 min equipotent with 0.3 mg/kg tamsulosin
  potency relative to tamsulosin (times less potent) on both UP and BP: about 5 times
Anesthetized rats [4]
  effect on basal BP levels: significantly decreased
  effect on basal UP: no effect
Anesthetized rats [5]; 10 ug/kg i.v., PE 100 ug/kg
  effect on delta UP (over baseline) induced by PE: statistically significant inhibitory effect
Anesthetized rats [5]; 33.3 ug/kg i.v., PE 30-100 and 150 ug/kg
  effect on delta UP (over baseline) induced by PE: statistically significant inhibitory effect
Anesthetized rats [5]; 10, 33.3 and 100 ug/kg i.v.
  dose response curve to PE (urethral pressure): dose-dependently shifted to the right
Anesthetized rats [5]; intravenous route, anesthetized rats
  potency relative to tamsulosin (times less potent): approximately 10 times
Anesthetized rats [5]; test substance 100 ug/kg i.v.
  effect on agonist (PE) effect on UP: statistically significant decrease
alpha1-adrenoceptors [6]
  effect on Emax of PE concentration-response curve: unaffected
alpha1-adrenoceptors [6]; n=6 for each dose, 0.1-3 uM
  effect on PE-induced contractions: concentration-dependently antagonized
alpha1-adrenoceptors [7]; 0.1-3 uM, 60 min incubation
  antagonist potency (pA2) estimated by the Schild plot: 7.47
Alpha 1 adrenoceptors
  affinity/potency for alpha 1 adrenoceptors compared with alpha 2 adrenoreceptors: slightly greater affinity/potency
Alpha 1 adrenoceptors; alpha 1 adrenoceptors
  affinity and potency among receptors: greatest affinity and is most potent
Serotonin 5HT2A receptor
  affinity and potency among receptors: greatest affinity and is most potent

Source: US10272075B2, “Method and composition for treating an alpha adrenoceptor-mediated condition” (Vanda Pharmaceuticals, Inc., priority 2007, dated 2019)
